Earlier results as cited in US11027026B2, “Polymer, and contrast agent for photoacoustic imaging, including the polymer” (CANON KABUSHIKI KAISHA, priority 2014, dated 2021).

Details: in vivo

CC1(C)C(/C=C/C=C/C=C/C=C2/N(CCCCS(=O)(=O)[O-])c3ccc4ccccc4c3C2(C)C)=[N+](CCCCS(=O)(=O)[O-])c2ccc3ccccc3c21.[Na+] [ICG, indocyanine green]
Half-life in blood: about several minutes
